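Five compound concentrations were applied to cells in 96-well plates for 48 hours; endpoints were derived by simple linear interpolation of the resulting dose-response curve. The concentration for 50% growth inhibition is given as GI50. TGI denotes the concentration required for complete inhibition of growth.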
Tests used:
Assay in all cases: inhibition of tumour cell growth, NCI panel, 48 h
[1] = tested on: HOP-92 NSCLC
[2] = tested on: COLO 205 colon
[3] = tested on: PC-3 prostate
[4] = tested on: ACHN renal
[5] = tested on: SK-MEL-28 melanoma
[6] = tested on: LOX IMVI melanoma
[7] = tested on: CCRF-CEM leukemia
[8] = tested on: UACC-257 melanoma
[9] = tested on: NCI-H460 lung
[10] = tested on: NCI-H522 lung
[11] = tested on: OVCAR-8 ovarian
[12] = tested on: MCF7 breast
[13] = tested on: HOP-62 NSCLC
[14] = tested on: SF-295 CNS
[15] = tested on: SNB-19 CNS
[16] = tested on: K-562 leukemia
[17] = tested on: UO-31 renal
[18] = tested on: M14 melanoma
[19] = tested on: SF-539 CNS
[20] = tested on: OVCAR-4 ovarian
[21] = tested on: IGROV1 ovarian
[22] = tested on: UACC-62 melanoma
[23] = tested on: SK-MEL-5 melanoma
[24] = tested on: 786-0 renal
[25] = tested on: SK-OV-3 ovarian
[26] = tested on: SR leukemia
[27] = tested on: MOLT-4 leukemia
[28] = tested on: HCT-15 colon
[29] = tested on: CAKI-1 renal

Compound `C#CCn1cccc1CNc1ccc(OC)cc1` has a GI50 [1] of 2.94 µM, a TGI [1] of over 100 µM and a GI50 [2] of over 100 µM. For the same compound, the TGI [2] was over 100 µM, the GI50 [3] was 16 µM and the TGI [3] was over 100 µM. For the same compound, the GI50 [4] was 97.2 µM, the TGI [4] was over 100 µM and the GI50 [5] was over 100 µM. It also gave a TGI [5] of over 100 µM, a GI50 [6] of 56.9 µM and a TGI [6] of over 100 µM. For the same compound, the GI50 [7] was 41 µM, the TGI [7] was over 100 µM and the GI50 [8] was 45.5 µM. For the same compound, the TGI [8] was over 100 µM, the GI50 [9] was over 100 µM and the TGI [9] was over 100 µM. It also gave a GI50 [10] of 41.6 µM, a TGI [10] of over 100 µM and a GI50 [11] of over 100 µM. It also gave a TGI [11] of over 100 µM, a GI50 [12] of 79.6 µM and a TGI [12] of over 100 µM. It also gave a GI50 [13] of over 100 µM, a TGI [13] of over 100 µM and a GI50 [14] of over 100 µM. The TGI [14] was over 100 µM, the GI50 [15] was over 100 µM and the TGI [15] was over 100 µM. For the same compound, the GI50 [16] was 44.6 µM, the TGI [16] was over 100 µM and the GI50 [17] was 39.1 µM. The TGI [17] was over 100 µM, the GI50 [18] was 82 µM and the TGI [18] was over 100 µM. It also gave a GI50 [19] of over 100 µM, a TGI [19] of over 100 µM and a GI50 [20] of 28.7 µM. The TGI [20] was over 100 µM, the GI50 [21] was 53.7 µM and the TGI [21] was over 100 µM. It also gave a GI50 [22] of 74.1 µM, a TGI [22] of over 100 µM and a GI50 [23] of 67.8 µM. The TGI [23] was over 100 µM, the GI50 [24] was over 100 µM and the TGI [24] was over 100 µM. For the same compound, the GI50 [25] was over 100 µM, the TGI [25] was over 100 µM and the GI50 [26] was over 100 µM. It also gave a TGI [26] of over 100 µM, a GI50 [27] of over 100 µM and a TGI [27] of over 100 µM. It also gave a GI50 [28] of over 100 µM, a TGI [28] of over 100 µM and a GI50 [29] of 50 µM. For the same compound, the TGI [29] was over 100 µM.

From PubChem BioAssay (NCI)
